Test results: patent publication US9526720B2, “Modulators of hepatic lipoprotein metabolism” (The Broad Institute, Inc., priority 2012, dated 2016)
Read-outs that look alike come from different tables or passages of the source.

Assays:
[1] = tested on: TRIB1; assay: qPCR TRIB1 expression in HepG2 cells; assay type: cell-based, human; details: Homo sapiens, 20 h; HepG2 cells
Description: (§1) In the primary screen, HepG2 cells were plated in 384-well plates at 2000 cells per well and incubated for 20 hours with each compound in duplicate at 10 microM concentration. Then RNA was isolated, reverse-transcribed to cDNA, and stored at −80° C. Expression levels of TRIB1 and other target genes, such as SORT1 and PCSK9, were determined by quantitative PCR. Relative gene expression level was normalized to expression of the housekeeping gene, GAPDH. A “hit” was defined as those compounds that caused a greater than 2-fold increase in relative target gene expression when normalized to GAPDH expression, compared to DMSO-treated control. Using these criteria, 130 hits were identified for TRIB1 (0.8% hit rate).
(§2) Further analysis of the expression levels of various proteins in the cholesterol and triglyceride biosynthetic pathways in response to TRIB1 inducer treatment was performed. In particular, transcript levels of additional lipoprotein metabolism pathway proteins SCAP, SREBF1, SREBF2, HMGCR, HMGCS, SCD1, FASN and MTTP were assessed by qPCR, along with TRIB1, LDLR, and PCSK9. The gene expression profile for the same subset of genes was also assessed after treatment with the statin atorvastatin (Lipitor), commonly used in therapy for hypercholesterolemia and other cardiovascular diseases.
(§3) The kinetics of the modulation of TRIB1, LDLR, PCSK9 and MTTP gene expression after treatment by select TRIB1 inducer compounds was monitored by qPCR analysis (FIG. 4). RNA was extracted from cells at various timepoints over 28 hours of treatment (0, 2, 4, 6, 8, 24, 28 hours). Specifically, compounds 12a and 14a induced transcriptional responses over time similar to those produced by berberine, a plant alkaloid used in Chinese medicine. […] Both compound 12a and compound 14a induce TRIB1 and LDLR and repress PCSK9 and MTTP expression with similar kinetics and similar fold change as berberine Importantly, both compounds induce these gene expression changes at much lower concentrations than berberine. […] This increased potency indicates the potential therapeutic efficacy of such compounds for treatment of cardiovascular diseases, particularly hypercholesterolemia and related conditions.

[2] = tested on: SCAP; assay: qPCR SCAP transcript level in HepG2 cells; assay type: cell-based, human; set-up: key: A: Increase <2-fold; B: Increase >2-fold; X: Decrease <2-fold; Y: Decrease >2-fold; No significant change
Description: as §1, §2

[3] = tested on: SCD1; assay: qPCR SCD1 transcript level in HepG2 cells; assay type: cell-based; details: Homo sapiens, 20 h
Description: as §1, §2

[4] = tested on: LDLR; assay: qPCR LDLR expression in HepG2 cells; assay type: cell-based, human; details: for qPCR LDLR: HepG2 cells; for EC50: Homo sapiens, HepG2, 6 h, read-out: qPCR 6Hr (EC50 uM) LDLR up-regulation
Description: as §1, §2, §3

[5] = tested on: SREBF1; assay: qPCR SREBF1 transcript level in HepG2 cells; assay type: cell-based, human; set-up: key: A: Increase <2-fold; B: Increase >2-fold; X: Decrease <2-fold; Y: Decrease >2-fold; No significant change
Description: as §1, §2

[6] = tested on: PCSK9; assay: qPCR PCSK9 expression in HepG2 cells; assay type: cell-based, human; details: Homo sapiens; for fold induction at 10 µM: 20 h, HepG2 cells; for EC50: HepG2, 24 h, read-out: qPCR 24 Hr (EC50 uM) PCSK9 down-regulation
Description: as §1, §2, §3

[7] = tested on: HMGCS; assay: qPCR HMGCS transcript level in HepG2 cells; assay type: cell-based; details: Homo sapiens, 20 h
Description: as §1, §2

[8] = tested on: HMGCR; assay: qPCR HMGCR transcript level in HepG2 cells; assay type: cell-based, human
Description: as §1, §2

[9] = tested on: ApoB; assay: ELISA of secreted ApoB in HepG2 cells; assay type: cell-based, human; set-up: key to ELISA 24 Hr (EC50 uM) ApoB decrease: A: EC50 between 0.0000001 μM≦0.5 μM; B: EC50 between 0.51 μM≦1.0 μM; EC50 between 1.1 μM≦2.0 μM; D: EC50 between 2.1 μM≦5.0 μM; EC50 between 5.1 μM≦10 μM; F: EC50>10 μM; NC: No change; details: for ELISA ApoB: HepG2 cells; for EC50: Homo sapiens, HepG2, 24 h, read-out: ELISA 24 Hr (EC50 uM) ApoB decrease
Description: (§4) Additional secondary assays were performed in HepG2 cells to further characterize the cellular response to treatment with select confirmed TRIB1 inducer hits. The results of the ELISA, CTG, and qPCR secondary assays are summarized in Table B. For all secondary assays, the experiments were performed using powders of freshly purified compounds.
(§5) To further characterize the relationship of TRIB1 induction and PCSK9 reduction, ELISAs were performed to measure the levels of secreted ApoB, PCSK9, and LDLR. […] As predicted treatment with TRIB1 inducer hits caused a decrease in ApoB levels detected by ELISA. In parallel effort, 3200 BIOA and NATP compounds were screened for PCSK9 expression inhibitors. Hits were defined as inducing greater than 3-fold downregulation of PCSK9, and 3.8% of the screened compounds were confirmed as hits. […] In further experiments, a strong correlation was confirmed between TRIB1 induction and PCSK9 repression in DOS Collection hits. ELISA analysis confirmed that treatment with TRIB1 inducers reduced the PCSK9 protein levels. LDLR protein levels were also analyzed by ELISA to determine whether compounds that modulate both TRIB1 and PCSK9 had any effect on LDLR protein levels.

[10] = tested on: SREBF2; assay: qPCR SREBF2 transcript level in HepG2 cells; assay type: cell-based, human; set-up: key: A: Increase <2-fold; B: Increase >2-fold; X: Decrease <2-fold; Y: Decrease >2-fold; No significant change
Description: as §1, §2

[11] = tested on: LDLR; assay: ELISA of LDLR protein in HepG2 cells; assay type: cell-based, human; set-up: key to ELISA LDLR: A: Increase <2-fold; B: Increase >2-fold; X: Decrease <2-fold; Y: Decrease >2-fold; No significant change; details: for ELISA LDLR: HepG2 cells; for EC50: Homo sapiens, HepG2, 24 h, read-out: ELISA 24 Hr (EC50 uM) LDLR increase
Description: as §4, §5

[12] = tested on: HepG2 cells; assay: Cell Titer Glo (CTG) cell viability assay; assay type: cell-based, human; set-up: key: A: Increase <2-fold; B: Increase >2-fold; X: Decrease <2-fold; Y: Decrease >2-fold; No significant change; details: cell viability (ATP)
Description: Cell viability was determined using a Cell Titer Glo (CTG) assay ([…]) after treatment with TRIB1 inducer compounds. In this assay, the number of viable cells in culture is based on quantitation of ATP, which indicates metabolically active cells. Addition of the reagent results in cell lysis and generation of a luminescent signal proportional to the amount of ATP present, which is directly proportional to the number of viable, metabolically active cells present in culture. Most TRIB1 inducer compounds had no significant effect on cell viability.

[13] = tested on: FASN; assay: qPCR FASN transcript level in HepG2 cells; assay type: cell-based; details: Homo sapiens, 20 h
Description: as §1, §2

[14] = tested on: PCSK9; assay: ELISA of secreted PCSK9 protein in HepG2 cells; assay type: cell-based, human; details: for ELISA PCSK9: HepG2 cells; for EC50: Homo sapiens, HepG2, 24 h, read-out: ELISA 24 Hr (EC50 uM) PCSK9 decrease
Description: as §4, §5

[15] = tested on: TRIB1; assay: qPCR TRIB1 expression in HepG2 cells; assay type: cell-based; details: Homo sapiens
[16] = HepG2, induction of TRIB1 and LDLR transcript levels, read-out: half maximal effective concentration (EC50)
[17] = HepG2, 6 h, read-out: qPCR 6Hr (EC50 uM) TRIB1 up-regulation

SMILES | EC50 [4] [µM] | EC50 [6] [µM] | EC50 [9] [µM] | EC50 [15, 17] [µM] | EC50 [11] [µM] | EC50 [14] [µM] | further results
O=C(C[C@H]1CC[C@H]2[C@@H](COC[C@@H](O)CN2Cc2ccc(Oc3ccccc3)cc2)O1)N1CCc2ccccc2C1 [Compound 7a] |  |  |  |  |  |  | fold induction at 10 µM [1]: > 2; qPCR SCAP [2]: N; fold induction at 10 µM [3]: < 2; qPCR LDLR [4]: B (Increase >2-fold); qPCR SREBF1 [5]: N; fold induction at 10 µM [6]: > 2; fold induction at 10 µM [7]: > 2; qPCR HMGCR [8]: Y (Decrease >2-fold); ELISA ApoB [9]: Y (Decrease >2-fold); qPCR SREBF2 [10]: N; ELISA LDLR [11]: B (Increase >2-fold); CTG [12]: N; fold induction at 10 µM [13]: < 2; ELISA PCSK9 [14]: Y (Decrease >2-fold)
O=C(C[C@@H]1CC[C@@H]2[C@H](COC[C@H](O)CN2CCC(F)(F)F)O1)NCc1ccc(Oc2ccccc2)cc1 [Compound 10a] |  |  |  |  |  |  | fold induction at 10 µM [1]: > 2; qPCR SCAP [2]: N; fold induction at 10 µM [3]: > 2; qPCR LDLR [4]: B (Increase >2-fold); qPCR SREBF1 [5]: N; fold induction at 10 µM [6]: > 2; fold induction at 10 µM [7]: > 2; qPCR HMGCR [8]: Y (Decrease >2-fold); ELISA ApoB [9]: Y (Decrease >2-fold); qPCR SREBF2 [10]: N; ELISA LDLR [11]: N; CTG [12]: N; fold induction at 10 µM [13]: < 2; ELISA PCSK9 [14]: X (Decrease <2-fold)
CN1C(=O)c2cc(NC(=O)Nc3ccccc3F)ccc2OC[C@@H]2O[C@H](CC(=O)NCc3ccc(-c4ccccc4)cc3)CC[C@@H]21 [Compound 15a] |  |  |  |  |  |  | EC50 [15, 16]: < 1 µM
CN(C)C(=O)c1ccc(-c2ccc([C@H]3[C@@H](C#N)N(C(=O)C4CCC4)[C@H]3CO)cc2)cc1 [Compound 18a] | 1.1 to 2 | 0.51 to 1 | 0.51 to 1 | 1.1 to 2 | 2.1 to 5 | 0.51 to 1 | 
CN(C)C(=O)c1ccc(-c2ccc([C@H]3[C@@H](C#N)N(C(=O)C4CCCC4)[C@H]3CO)cc2)cc1 [Compound 19a] | 1.1 to 2 | 1.1 to 2 | 2.1 to 5 | 2.1 to 5 | 2.1 to 5 | 1.1 to 2 | 
CN(C)C(=O)c1ccc(-c2ccc([C@H]3[C@@H](C#N)N(C(=O)C4CCC4)[C@@H]3CO)cc2)cc1 [Compound 22a] | 2.1 to 5 | 1.1 to 2 |  | 2.1 to 5 | 1.1 to 2 | 2.1 to 5 | ELISA 24 Hr (EC50 uM) ApoB decrease [9]: NC
N#C[C@@H]1[C@H](c2ccc(-c3ccccc3F)cc2)[C@H](CO)N1C(=O)C1CCC1 [Compound 21a] | 5.1 to 10 | 0.51 to 1 | > 10 | 2.1 to 5 | 5.1 to 10 | 1.1 to 2 | 
N#C[C@H]1[C@H](c2ccc(-c3cccc(F)c3)cc2)[C@@H](CO)N1C(=O)NC1CCCC1 [Compound 20a] | 2.1 to 5 | 0.51 to 1 | > 10 | 2.1 to 5 | 1.1 to 2 | 1.1 to 2 | 
CN(C)C(=O)c1ccc(-c2ccc([C@H]3[C@@H](C#N)N(C(=O)C4CCCCC4)[C@H]3CO)cc2)cc1 [Compound 17a] | 0.51 to 1 |  |  | 0.51 to 1 | 1.1 to 2 |  | EC50 [15, 16]: < 1 µM
CCCNC(=O)N1[C@H](C#N)[C@H](c2ccc(-c3cccnc3)cc2)[C@@H]1CO [Compound 23a] | 2.1 to 5 | 1.1 to 2 |  | 2.1 to 5 | 0.51 to 1 | 1.1 to 2 | ELISA 24 Hr (EC50 uM) ApoB decrease [9]: NC
N#C[C@@H]1[C@H](c2ccc(-c3cccc(F)c3)cc2)[C@@H](CO)N1C(=O)c1cccnc1 [Compound 24a] | 2.1 to 5 |  |  | 5.1 to 10 | 5.1 to 10 | 2.1 to 5 | ELISA 24 Hr (EC50 uM) ApoB decrease [9]: NC
COCC(=O)Nc1ccc2c(c1)C(=O)N(C)[C@H]1CC[C@@H](CC(=O)NC3Cc4ccccc4C3)O[C@H]1CO2 [Compound 16a] |  |  |  |  |  |  | EC50 [15, 16]: < 1 µM
